# Results taken from patent US9321722B2, “Bis-indolic derivatives, their uses in particular as antibacterials” (UNIVERSITE JOSEPH FOURIER, priority 2011, dated 2016).
# Assays:
# [1] = tested on: S. epidermidis CIP 103627; experiment: MIC microdilution (Table I-1); format: cell-based, Staphylococcus epidermidis; details: Staphylococcus epidermidis, CIP103627, read after 18 hours, read-out: MIC
# Protocol: (§1) The microdilution method recommended by the Clinical and Laboratory Standard Institute [M07-A8, Vol. 29, N^o 2] was used. The activity of indolic compounds was tested against 29 bacterial strains belonging to 17 different species and 12 different genera (Staphylococcus, Streptococcus, Enterococcus, Listeria, Bacillus, Haemophilus, Escherichia, Klebsiella, Enterobacter, Serratia, Pseudomonas, and Acinetobacter). Bacterial inocula were prepared in Mueller Hinton broth (MH2, bioMerieux, Marcy L'Etoile, France), supplemented with 10% sheep blood for fastidious species (i.e., Streptococcus pneumoniae and Haemophilus influenzae). They were dispensed in 96 well microtiter plates (5×10^5 CFU/ml of final inoculum). Indolic compounds were added to the wells as to obtain two-fold serial concentrations (0.50-128 mg/L of final concentrations). Plates were incubated at 37° C. in ambient air, or at 37° C. in 5% CO2 enriched atmosphere for fastidious species. […] Drug-free cultures served as growth controls. Cultures receiving gentamicin, ciprofloxacin or cefotaxime served as positive controls.
# [2] = tested on: S. epidermidis ATCC 12228; experiment: MIC microdilution (Table I-1); format: cell-based, Staphylococcus epidermidis; details: Staphylococcus epidermidis, ATCC12228, read after 18 hours, read-out: MIC
# Protocol: as §1
# S. epidermidis CIP 81.55 = experiment: MIC microdilution (Table I-1); format: cell-based, Staphylococcus epidermidis; details: Staphylococcus epidermidis, CIP81, read after 18 hours, read-out: MIC
# Protocol: as §1
# [3] = tested on: KB (human mouth carcinoma); experiment: In vitro cytotoxicity; format: cell-based; details: KB; for inhibition at 10 µM: 10^−5 M, read-out: % of cellular growth inhibition; for inhibition at 1 µM: 10^−6 M, read-out: % of cellular growth inhibition (converted)
# Protocol: In vitro cytotoxicity was assayed on three cell lines—KB (human mouth carcinoma), MCR5 (human lung fibroblast) and HCT116 (human colon tumor). Results are presented in table III as % of cellular growth inhibition in presence of 10^−5 M and 10^−6 M of the tested bis-indolic derivatives.
# [4] = tested on: Staphylococcus aureus 1199B (overexpression of the NorA efflux pump); experiment: Efflux pump inhibition assay with sub-inhibitory ciprofloxacin; format: cell-based
# Protocol: (§2) The efflux pump inhibition potential of the bis-indolic derivatives was tested using two steps. In a first step, the intrinsic antibacterial activity of the compounds was assayed against the following strains:
# (§3) The following experimental protocol was used: indolic derivatives (initially solubilised in DMSO at 10 mg/mL) were dispensed in a 96-wells microplate by two fold serial dilutions in Muller-Hinton medium (MH, Bio Rad) using a Biomek 2000 (Beckman) handling robot. 100 μL of the bacterial inoculum (an overnight culture at 37° C. in 5 mL MH diluted 100-fold) was then added in each well. The total volume was 200 μL in each well and the final bacteria concentration 10^6 CFU/mL (CFU: colony forming unit). The highest final indolic derivative concentration was 128 mg/L. Growth was assayed with a microplate reader by monitoring absorption at 620 nm after 1, 2, 5, 7 and 24 h incubation at 37° C. In addition, the plates were read visually after 24 hours incubation. Cultures containing 5 μL DMSO were used as growth controls. In addition, two controls containing a sub-inhibitory or a inhibitory antibiotic concentration for the tested strain were performed. The antibiotics used were ampicillin (0.5 and 32 μg/mL) for E. coli, kanamycin (0.5 and 16 μg/mL) for S. aureus ATCC 25923, ciprofloxacin (4 and 64 mg/L) for S. aureus 1199B, ciprofloxacin (0.5 and 2 mg/L) for S. aureus K2378. All experiments were performed in duplicate.
# (§4) Efflux pump inhibition assays were then performed against resistant Staphylococcus aureus strains SA 1199B and SA K2378 for bis-indolic derivatives. […] The minimal inhibitory concentration (MIC) of the bis-indolic compound allowing a complete inhibition of the bacterial growth in the presence of ciprofloxacin was determined.
# [5] = tested on: Staphylococcus aureus ATCC 106414 (VISA); experiment: MIC, Staphylococcus panel (Table I-2); format: cell-based; details: 18 h, 4% DMSO
# Protocol: (§5) We used the previously described protocol, with subtle modifications. The microdilution method recommended by the Clinical and Laboratory Standard Institute [M07-A9, Vol. 32, N^o 2] was used. The activity of bis-indolic compounds was tested against 35 bacterial strains belonging to 12 different Staphylococcus species.
# (§6) Bacterial inocula were prepared in Mueller Hinton broth (MH2, BioMerieux, Marcy L'Etoile, France). They were dispensed in 96 well microtiter plates (5×10^5 CFU/ml of final inoculum, 192 μL per well). Indolic compounds diluted in pure DMSO (8 μL per well, concentrated 25 times) were added to the wells as to obtain two-fold serial concentrations (0.5-32 mg/L of final concentrations). The final concentration of DMSO was 4% in each well.
# (§7) To avoid cross-contaminations in microtiter plates, one row was left blank between each strain tested. Microplates were incubated for 18 h at 37° C. in ambient air or at 37° C. in 5% CO2 enriched atmosphere for fastidious species. Then MICs were read visually and, in case of visual reading difficulties, confirmed using a spectrophotometer at a wavelength of 630 nm (BioTek® EL808 Absorbance Microplate Reader). MICs corresponded to the minimum bis-indolic compound concentration that allowed complete visual growth inhibition of bacteria. Drug-free cultures served as growth controls.
# (§8) We used four Staphylococcus aureus strains. Two reference strains were provided by the French reference center for Staphylococcus spp. (Lyon, France), including one methicillin-susceptible (MSSA 476) and one methicillin-resistant (MRSA 252) S. aureus strains. The two remaining S. aureus strains were purchased from the CRBIP (Centre de Ressources Biologiques de l'Institut Pasteur): a vancomycin-intermediate strain (ATCC 106414) and a S. aureus strain (SA-1199B) resistant to fluoroquinolones due to overexpression of the NorA multidrug efflux pump.
# [6] = tested on: Staphylococcus aureus MSSA 476; experiment: MIC, Staphylococcus panel (Table I-2); format: cell-based; details: 18 h, 4% DMSO
# Protocol: as §5, §6, §7, §8
# [7] = tested on: Staphylococcus aureus MRSA 252; experiment: MIC, Staphylococcus panel (Table I-2); format: cell-based; details: 18 h, 4% DMSO
# Protocol: as §5, §6, §7, §8
# [8] = tested on: Staphylococcus aureus SA-1199B (NorA); experiment: MIC, Staphylococcus panel (Table I-2); format: cell-based; details: 18 h
# Protocol: as §5, §6, §7, §8
# [9] = tested on: HCT116 (human colon tumor); experiment: In vitro cytotoxicity; format: cell-based; details: HCT-116, HCT116, in DMSO, duplicate
# [10] = tested on: Staphylococcus aureus K2378 (overexpresses the efflux pump NorA from a multicopy plasmid); experiment: Efflux pump inhibition assay with sub-inhibitory ciprofloxacin; format: cell-based
# Protocol: as §2, §3, §4
# [11] = in the presence of ciprofloxacin 4 mg/L (MIC/4)
# [12] = in the presence of ciprofloxacin 0.25 mg/L (MIC/8)
Compound,MIC [1],MIC [2],MIC (S. epidermidis CIP 81.55),inhibition at 10 µM [3],inhibition at 1 µM [3],"CMI, mg/L (Ciprofloxacin concentration, mg/L) ([4]; in the presence of ciprofloxacin 2 mg/L (MIC/8))","CMI, mg/L (Ciprofloxacin concentration, mg/L) [4, 11]",MIC [5],MIC [6],MIC [7],MIC [8],IC50 [9],"CMI, mg/L (Ciprofloxacin concentration, mg/L) [10, 12]","CMI, mg/L (Ciprofloxacin concentration, mg/L) ([10]; in the presence of ciprofloxacin 0.5 mg/L (MIC/4))"
"CC(C)(C)OC(=O)NCC(NC(=O)C(=O)c1c[nH]c2ccccc12)c1c[nH]c2ccccc12 (stereo not drawn) [Compound 2, tert-Butyl(2-(2-(1H-indol-3-yl)-2-oxoacetamido)-2-(1H-indol-3-yl)ethyl)carbamate]",> 128 µg/mL,> 128 µg/mL,> 128 µg/mL,97 ± 1%,33%,2 (2) mg/L,0.5 (4) mg/L,–,–,–,–,–,–,–
"CC(C)(C)OC(=O)NCC(NC(=O)C(=O)c1c[nH]c2ccc(Br)cc12)c1c[nH]c2ccc(Br)cc12 (stereo not drawn) [Compound 4, tert-Butyl(2-(5-bromo-1H-indol-3-yl)-2-(2-(5-bromo-1H-indol-3-yl)-2-oxoacetamido)ethyl) carbamate]",1.6 µg/mL,0.8 µg/mL,1.6 µg/mL,76 ± 5%,0%,–,–,1 µg/mL,1 µg/mL,1 µg/mL,1 µg/mL,4.55 µM,–,–
"CC(NC(=O)C(=O)c1c[nH]c2ccc(Br)cc12)c1c[nH]c2ccc(Br)cc12 (stereo not drawn) [Compound 5, 2-(5-Bromo-1H-indol-3-yl)-N-(1-(5-bromo-1H-indol-3-yl)ethyl)-2-oxoacetamide]",2 µg/mL,2 µg/mL,2 µg/mL,91 ± 3%,0%,–,–,1 µg/mL,2 µg/mL,2 µg/mL,2 µg/mL,10.1 µM,–,–
"O=C(C(=O)N1CCCCC1c1c[nH]c2ccccc12)c1c[nH]c2ccccc12 (stereo not drawn) [Compound 6a, 1-(2-(1H-Indol-3-yl)piperidin-1-yl)-2-(1H-indol-3-yl)ethane-1,2-dione]",> 128 µg/mL,> 128 µg/mL,> 128 µg/mL,20 ± 13%,0%,–,<0.125 (4) mg/L,–,–,–,–,–,8 (0.25) mg/L,–
"O=C(C(=O)N1CCOCC1c1c[nH]c2ccccc12)c1c[nH]c2ccccc12 (stereo not drawn) [Compound 6b, 1-(3-(1H-Indol-3-yl)morpholino)-2-(1H-indol-3-yl)ethane-1,2-dione]",> 128 µg/mL,> 128 µg/mL,> 128 µg/mL,9 ± 4%,0%,–,0.5 (4) mg/L,–,–,–,–,–,16 (0.25) mg/L,–
"CC(C)(C)OC(=O)N1CCN(C(=O)C(=O)c2c[nH]c3ccccc23)C(c2c[nH]c3ccccc23)C1 (stereo not drawn) [Compound 6c, tert-Butyl 4-(2-(1H-indol-3-yl)-2-oxoacetyl)-3-(1H-indol-3-yl)piperazine-1-carboxylate]",> 128 µg/mL,> 128 µg/mL,> 128 µg/mL,66 ± 8%,0%,–,0.25 (4) mg/L,–,–,–,–,–,16 (0.25) mg/L,–
"O=C(C(=O)N1CCCCC1c1c[nH]c2ccc(Br)cc12)c1c[nH]c2ccc(Br)cc12 (stereo not drawn) [Compound 6d, 1-(5-Bromo-1H-indol-3-yl)-2-(2-(5-bromo-1H-indol-3-yl)piperidin-1-yl)ethane-1,2-dione]",> 128 µg/mL,> 128 µg/mL,> 128 µg/mL,53 ± 5%,0%,–,<0.125 (4) mg/L,–,–,–,–,–,8 (0.25) mg/L,–
"CC(C)(C)OC(=O)N1CCN(C(=O)C(=O)c2c[nH]c3ccc(Br)cc23)C(c2c[nH]c3ccc(Br)cc23)C1 (stereo not drawn) [Compound 6f, tert-Butyl 3-(5-bromo-1H-indol-3-yl)-4-(2-(5-bromo-1H-indol-3-yl)-2-oxoacetyl) piperazine-1-carboxylate]",> 128 µg/mL,> 128 µg/mL,> 128 µg/mL,92 ± 3%,0%,–,<0.25 (4) mg/L,–,–,–,–,–,1 (0.25) mg/L,1 (0.5) mg/L
